Experimental data published in ChEMBL document CHEMBL1201862, “PubChem BioAssay data set” (2004).
Where “and” joins values, the source holds several entries; their conditions need not be identical. Equal values may be shown once.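 Test compounds were applied to cells in 96-well plates for 48 hours at 5 doses. Abbreviation: GI50, concentration required for 50% inhibition of growth.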 Calls of active or inactive are those of the source. Rule as the data show it: active = GI50 up to about 1.1 µM and inactive = higher.

Key:
Experiment in all cases: inhibition of tumour cell growth, NCI panel, 48 h
[1] = system: 786-0
[2] = system: CCRF-CEM
[3] = system: COLO 205
[4] = system: EKVX
[5] = system: HOP-62
[6] = system: MDA-N
[7] = system: Malme-3M
[8] = system: NCI-H226
[9] = system: NCI-H460
[10] = system: NCI/ADR-RES
[11] = system: OVCAR-5
[12] = system: SF-295
[13] = system: SF-539
[14] = system: SK-MEL-2
[15] = system: SN12C
[16] = system: SNB-19
[17] = system: UO-31
[18] = system: K562
[19] = system: RPMI-8226
[20] = system: UACC-62

SMILES	GI50 [1]	GI50 [2]	GI50 [3]	GI50 [4]	GI50 [5]	GI50 [6]	GI50 [7]	GI50 [8]	GI50 [9]	GI50 [10]	GI50 [11]	GI50 [12]	GI50 [13]	GI50 [14]	GI50 [15]	GI50 [16]	GI50 [17]	GI50 [18]	GI50 [19]	GI50 [20]
O=c1c(-c2ccc(Cl)cc2)nnc2n(Cc3ccccc3)c3ccccc3n12	14.9 µM (inactive)	> 100 µM (inactive)	> 100 µM (inactive)	38.4 µM (inactive)	23.6 µM (inactive)	> 100 µM (inactive)	39.8 µM (inactive)	23.7 µM (inactive)	33.3 µM (inactive)	52.7 µM (inactive)	48.9 µM (inactive)	19.1 µM (inactive)	13.6 µM (inactive)	44.2 µM (inactive)	82.2 µM (inactive)	17.7 µM (inactive)	44.4 µM (inactive)	–	–	–
N#CCCC1(CCC#N)CCCCCCCCC(CCC#N)(CCC#N)C(O)C1O (centres undefined)	> 100 µM (inactive)	–	> 100 µM (inactive)	> 100 µM (inactive)	61.7 µM (inactive)	> 100 µM (inactive)	> 100 µM (inactive)	> 100 µM (inactive)	> 100 µM (inactive)	> 100 µM (inactive)	> 100 µM (inactive)	> 100 µM (inactive)	29.8 µM (inactive)	> 100 µM (inactive)	> 100 µM (inactive)	66.7 µM (inactive)	–	> 100 µM (inactive)	< 0.01 µM (active)	> 100 µM (inactive)
COc1cc(N(C)C)c(OC)cc1C=C1C=CC=C1	> 100 µM (inactive)	54.1 µM (inactive)	–	> 100 µM (inactive)	> 100 µM (inactive)	44.1 µM (inactive)	> 100 µM (inactive)	> 100 µM (inactive)	> 100 µM (inactive)	74.6 µM (inactive)	> 100 µM (inactive)	> 100 µM (inactive)	> 100 µM (inactive)	> 100 µM (inactive)	> 100 µM (inactive)	> 100 µM (inactive)	> 100 µM (inactive)	58.5 µM (inactive)	–	82.4 µM (inactive)
CC(C)(C)OC(=O)N1C(OP(=O)(Oc2ccccc2)Oc2ccccc2)=COc2cccnc21	94.6 µM (inactive)	–	34.8 µM (inactive)	60.7 µM (inactive)	60.5 µM (inactive)	36.3 µM (inactive)	30.6 µM (inactive)	69.8 µM (inactive)	31.8 µM (inactive)	40.7 µM (inactive)	> 100 µM (inactive)	34.7 µM (inactive)	> 100 µM (inactive)	22.3 µM (inactive)	70.1 µM (inactive)	78.9 µM (inactive)	42.9 µM (inactive)	44.9 µM (inactive)	21.8 µM (inactive)	64.6 µM (inactive)
NCCOCC(N)C(=O)O (centres undefined)	> 100 µM (inactive)	> 100 µM (inactive) and > 72.8 µM (inactive)	> 100 µM (inactive)	> 100 µM (inactive)	> 100 µM (inactive)	> 100 µM (inactive)	> 100 µM (inactive)	> 100 µM (inactive)	> 100 µM (inactive)	> 100 µM (inactive)	> 100 µM (inactive)	> 100 µM (inactive)	> 100 µM (inactive)	> 100 µM (inactive)	> 100 µM (inactive)	> 100 µM (inactive)	> 100 µM (inactive)	> 100 µM (inactive)	–	> 100 µM (inactive)
Cc1cn(CC2=NCC(C)(C)CN2)c(=O)[nH]c1=O	> 100 µM (inactive)	> 100 µM (inactive)	> 100 µM (inactive)	> 100 µM (inactive)	> 100 µM (inactive)	> 100 µM (inactive)	> 100 µM (inactive)	> 100 µM (inactive)	> 100 µM (inactive)	> 100 µM (inactive)	> 100 µM (inactive)	> 100 µM (inactive)	–	> 100 µM (inactive)	> 100 µM (inactive)	> 100 µM (inactive)	> 100 µM (inactive)	–	–	> 100 µM (inactive)
C=CC[C@@]12CCC(=O)C=C1CCCC2=O	> 100 µM (inactive)	–	> 100 µM (inactive)	> 100 µM (inactive)	> 100 µM (inactive)	> 100 µM (inactive)	> 100 µM (inactive)	> 100 µM (inactive)	> 100 µM (inactive)	> 100 µM (inactive)	> 100 µM (inactive)	> 100 µM (inactive)	> 100 µM (inactive)	> 100 µM (inactive)	> 100 µM (inactive)	> 100 µM (inactive)	> 100 µM (inactive)	> 100 µM (inactive)	> 100 µM (inactive)	> 100 µM (inactive)
CC1(C)CCC[C@]2(C)[C@@H]1CC[C@@]13O[C@@H]1C1=C(CO)C(=O)O[C@]14O[C@@H]4[C@@H]23	15.2 µM (inactive)	–	17.7 µM (inactive)	11.9 µM (inactive)	17.8 µM (inactive)	5.78 µM (inactive)	17 µM (inactive)	19 µM (inactive)	14.9 µM (inactive)	14.9 µM (inactive)	15.7 µM (inactive)	16.1 µM (inactive)	17.3 µM (inactive)	13.9 µM (inactive)	5.9 µM (inactive)	14.8 µM (inactive)	6.05 µM (inactive)	> 41 µM (inactive)	> 100 µM (inactive)	10.9 µM (inactive)
CC1CC(N)=C(C#N)C1(C#N)C#N (centres undefined)	> 100 µM (inactive)	–	> 100 µM (inactive)	> 100 µM (inactive)	–	> 100 µM (inactive)	> 100 µM (inactive)	> 100 µM (inactive)	–	> 100 µM (inactive)	> 100 µM (inactive)	> 100 µM (inactive)	> 100 µM (inactive)	> 100 µM (inactive)	> 100 µM (inactive)	> 100 µM (inactive)	> 100 µM (inactive)	> 100 µM (inactive)	> 100 µM (inactive)	> 100 µM (inactive)
CC1(C)OC[C@H](COCOP2(=O)Oc3ccc4ccccc4c3-c3c(ccc4ccccc34)O2)O1	35.5 µM (inactive)	27.6 µM (inactive)	–	> 10 µM (inactive)	21.4 µM (inactive)	13.5 µM (inactive)	21.3 µM (inactive)	18.7 µM (inactive)	16.7 µM (inactive)	18.3 µM (inactive)	17.8 µM (inactive)	17.6 µM (inactive)	18.8 µM (inactive)	–	16.4 µM (inactive)	19.1 µM (inactive)	18.3 µM (inactive)	21.8 µM (inactive)	–	17.2 µM (inactive)
COc1ccc(-c2nnc(CCCCCCCCc3nnc(-c4ccc(OC)cc4)o3)o2)cc1	57.4 µM (inactive)	> 100 µM (inactive)	> 100 µM (inactive)	> 100 µM (inactive)	25.4 µM (inactive)	> 100 µM (inactive)	> 100 µM (inactive)	> 100 µM (inactive)	> 100 µM (inactive)	> 100 µM (inactive)	> 100 µM (inactive)	50.4 µM (inactive)	63.7 µM (inactive)	> 100 µM (inactive)	> 100 µM (inactive)	36.4 µM (inactive)	> 100 µM (inactive)	> 100 µM (inactive)	–	–
NC1=C(c2nc(-c3ccccc3)cs2)C(c2ccco2)c2c(c3ccccc3oc2=O)O1 (centres undefined)	> 100 µM (inactive)	> 100 µM (inactive)	> 100 µM (inactive)	> 100 µM (inactive)	> 100 µM (inactive)	> 100 µM (inactive)	> 100 µM (inactive)	38.2 µM (inactive)	> 100 µM (inactive)	> 100 µM (inactive)	> 100 µM (inactive)	> 100 µM (inactive)	> 100 µM (inactive)	> 100 µM (inactive)	> 100 µM (inactive)	> 100 µM (inactive)	> 100 µM (inactive)	> 100 µM (inactive)	–	> 100 µM (inactive)
CCNC(=S)/N=c1\sc(NCC)nc2sc3c(c12)CCN(N1CCc2c(sc4nc(NCC)s/c(=N\C(=S)NCC)c24)C1)C3	26.6 µM (inactive)	41.9 µM (inactive)	57.4 µM (inactive)	> 100 µM (inactive)	57.3 µM (inactive)	91.4 µM (inactive)	> 100 µM (inactive)	24.9 µM (inactive)	76.6 µM (inactive)	> 100 µM (inactive)	> 100 µM (inactive)	72.4 µM (inactive)	15.5 µM (inactive)	> 100 µM (inactive)	> 100 µM (inactive)	74 µM (inactive)	> 100 µM (inactive)	27.7 µM (inactive)	–	> 100 µM (inactive)
c1ccc(CCc2cccnc2)nc1	> 100 µM (inactive)	–	> 100 µM (inactive)	> 100 µM (inactive)	> 100 µM (inactive)	> 100 µM (inactive)	> 100 µM (inactive)	> 100 µM (inactive)	> 100 µM (inactive)	> 100 µM (inactive)	> 100 µM (inactive)	> 100 µM (inactive)	> 100 µM (inactive)	> 100 µM (inactive)	> 100 µM (inactive)	> 100 µM (inactive)	> 100 µM (inactive)	52.4 µM (inactive)	> 100 µM (inactive)	> 100 µM (inactive)
COC(=O)C1=C(CCCCO[Si](C)(C)C(C)(C)C)NC(=O)N2[C@H](CCOCc3ccccc3)CC[C@@H]12	44.7 µM (inactive)	–	27.9 µM (inactive)	31.5 µM (inactive)	> 100 µM (inactive)	55.3 µM (inactive)	40 µM (inactive)	> 100 µM (inactive)	38 µM (inactive)	32.7 µM (inactive)	> 100 µM (inactive)	33.1 µM (inactive)	33.7 µM (inactive)	75.3 µM (inactive)	30.1 µM (inactive)	78.3 µM (inactive)	43.9 µM (inactive)	87.9 µM (inactive)	49.4 µM (inactive)	> 100 µM (inactive)
